Data: PMC12281475, “Mediator Kinase Inhibitor Selectivity and Activity in Colorectal Cancer” (ACS Chemical Biology, 2025)
Read-outs that look alike come from different tables or passages of the source.

Experiments:
[1] = biological target: T1, CDK1_CycA2 (Homo sapiens, UniProt P06493); assay: Radiometric protein kinase assay (33PanQinase), CDK1_CycA2; type: biochemical; settings: for Hill Slope: slope of the IC50 fit
T1 construct: purchased Reaction Biology

[2] = biological target: T2, CDK1_CycB1 (Homo sapiens, UniProt P06493); assay: Radiometric protein kinase assay (33PanQinase), CDK1_CycB1; type: biochemical; settings: for Hill Slope: slope of the IC50 fit
T2 construct: purchased Reaction Biology

[3] = biological target: T3, CDK1_CycE1 (Homo sapiens, UniProt P06493); assay: Radiometric protein kinase assay (33PanQinase), CDK1_CycE1; type: biochemical; settings: for Hill Slope: slope of the IC50 fit
T3 construct: purchased Reaction Biology

[4] = biological target: CDK10_CycQ (Homo sapiens, UniProt Q15131); assay: Radiometric protein kinase assay (33PanQinase), CDK10_CycQ; type: biochemical; settings: for IC50: highest assay concentration 1.00E-05 M; for Hill Slope: slope of the IC50 fit
[5] = biological target: CDK11B 357-795_CycK (Homo sapiens, UniProt P21127); assay: Radiometric protein kinase assay (33PanQinase), CDK11B 357-795_CycK; type: biochemical; settings: for IC50: highest assay concentration 1.00E-05 M; for Hill Slope: slope of the IC50 fit
[6] = biological target: T4, CDK12_CycK (Homo sapiens, UniProt Q9NYV4); assay: Radiometric protein kinase assay (33PanQinase), CDK12_CycK; type: biochemical; settings: for Hill Slope: slope of the IC50 fit
T4 construct: purchased Reaction Biology

[7] = biological target: T5, CDK13_CycK (Homo sapiens, UniProt Q14004); assay: Radiometric protein kinase assay (33PanQinase), CDK13_CycK; type: biochemical; settings: for Hill Slope: slope of the IC50 fit
T5 construct: purchased Reaction Biology

[8] = biological target: CDK14_CycY (Homo sapiens, UniProt O94921); assay: Radiometric protein kinase assay (33PanQinase), CDK14_CycY; type: biochemical; settings: for IC50: highest assay concentration 1.00E-05 M; for Hill Slope: slope of the IC50 fit
[9] = biological target: T6, CDK15_CycA2 (Homo sapiens, UniProt Q96Q40); assay: Radiometric protein kinase assay (33PanQinase), CDK15_CycA2; type: biochemical; settings: for IC50: highest assay concentration 1.00E-05 M; for Hill Slope: slope of the IC50 fit
T6 construct: purchased Reaction Biology

[10] = biological target: T7, CDK16_CycY (Homo sapiens, UniProt Q00536); assay: Radiometric protein kinase assay (33PanQinase), CDK16_CycY; type: biochemical; settings: for IC50: highest assay concentration 1.00E-05 M; for Hill Slope: slope of the IC50 fit
T7 construct: purchased Reaction Biology

[11] = biological target: CDK17_p35NCK (Homo sapiens, UniProt Q00537); assay: Radiometric protein kinase assay (33PanQinase), CDK17_p35NCK; type: biochemical; settings: for Hill Slope: slope of the IC50 fit
[12] = biological target: CDK18_CycY (Homo sapiens, UniProt Q07002); assay: Radiometric protein kinase assay (33PanQinase), CDK18_CycY; type: biochemical; settings: for IC50: highest assay concentration 1.00E-05 M; for Hill Slope: slope of the IC50 fit
[13] = biological target: T8, CDK19_CycC (Homo sapiens, UniProt Q9BWU1); assay: Radiometric protein kinase assay (33PanQinase), CDK19_CycC; type: biochemical; settings: for Hill Slope: slope of the IC50 fit
T8 construct: purchased Reaction Biology

[14] = biological target: T9, CDK2_CycA2 (Homo sapiens, UniProt P24941); assay: Radiometric protein kinase assay (33PanQinase), CDK2_CycA2; type: biochemical
T9 construct: purchased Reaction Biology

[15] = biological target: T10, CDK2_CycD1 (Homo sapiens, UniProt P24941); assay: Radiometric protein kinase assay (33PanQinase), CDK2_CycD1; type: biochemical; settings: for Hill Slope: slope of the IC50 fit
T10 construct: purchased Reaction Biology

[16] = biological target: T11, CDK2_CycE1 (Homo sapiens, UniProt P24941); assay: Radiometric protein kinase assay (33PanQinase), CDK2_CycE1; type: biochemical; settings: for Hill Slope: slope of the IC50 fit
T11 construct: purchased Reaction Biology

[17] = biological target: CDK20_CycH (Homo sapiens, UniProt Q8IZL9); assay: Radiometric protein kinase assay (33PanQinase), CDK20_CycH; type: biochemical; settings: for IC50: highest assay concentration 1.00E-05 M; for Hill Slope: slope of the IC50 fit
[18] = biological target: CDK20_CycT1 (Homo sapiens, UniProt Q8IZL9); assay: Radiometric protein kinase assay (33PanQinase), CDK20_CycT1; type: biochemical; settings: for IC50: highest assay concentration 1.00E-05 M; for Hill Slope: slope of the IC50 fit
[19] = biological target: T12, CDK3_CycC (Homo sapiens, UniProt Q00526); assay: Radiometric protein kinase assay (33PanQinase), CDK3_CycC; type: biochemical; settings: for Hill Slope: slope of the IC50 fit
T12 construct: purchased Reaction Biology

[20] = biological target: T13, CDK3_CycE1 (Homo sapiens, UniProt Q00526); assay: Radiometric protein kinase assay (33PanQinase), CDK3_CycE1; type: biochemical; settings: for Hill Slope: slope of the IC50 fit
T13 construct: purchased Reaction Biology

[21] = biological target: T14, CDK4_CycD1 (Homo sapiens, UniProt P11802); assay: Radiometric protein kinase assay (33PanQinase), CDK4_CycD1; type: biochemical; settings: for IC50: highest assay concentration 1.00E-05 M; for Hill Slope: slope of the IC50 fit
T14 construct: purchased Reaction Biology

[22] = biological target: T15, CDK4_CycD2 (Homo sapiens, UniProt P11802); assay: Radiometric protein kinase assay (33PanQinase), CDK4_CycD2; type: biochemical; settings: for IC50: highest assay concentration 1.00E-05 M; for Hill Slope: slope of the IC50 fit
T15 construct: purchased Reaction Biology

[23] = biological target: T16, CDK4_CycD3 (Homo sapiens, UniProt P11802); assay: Radiometric protein kinase assay (33PanQinase), CDK4_CycD3; type: biochemical; settings: for IC50: highest assay concentration 1.00E-05 M; for Hill Slope: slope of the IC50 fit
T16 construct: purchased Reaction Biology

[24] = biological target: T17, CDK5_p25NCK (Homo sapiens, UniProt Q00535); assay: Radiometric protein kinase assay (33PanQinase), CDK5_p25NCK; type: biochemical; settings: for IC50: highest assay concentration 1.00E-05 M; for Hill Slope: slope of the IC50 fit
T17 construct: purchased Reaction Biology

[25] = biological target: T18, CDK5_p35NCK (Homo sapiens, UniProt Q00535); assay: Radiometric protein kinase assay (33PanQinase), CDK5_p35NCK; type: biochemical; settings: for IC50: highest assay concentration 1.00E-05 M; for Hill Slope: slope of the IC50 fit
T18 construct: purchased Reaction Biology

[26] = biological target: T19, CDK6_CycD1 (Homo sapiens, UniProt Q00534); assay: Radiometric protein kinase assay (33PanQinase), CDK6_CycD1; type: biochemical; settings: for IC50: highest assay concentration 1.00E-05 M; for Hill Slope: slope of the IC50 fit
T19 construct: purchased Reaction Biology

[27] = biological target: T20, CDK6_CycD2 (Homo sapiens, UniProt Q00534); assay: Radiometric protein kinase assay (33PanQinase), CDK6_CycD2; type: biochemical; settings: for IC50: highest assay concentration 1.00E-05 M; for Hill Slope: slope of the IC50 fit
T20 construct: purchased Reaction Biology

[28] = biological target: T21, CDK6_CycD3 (Homo sapiens, UniProt Q00534); assay: Radiometric protein kinase assay (33PanQinase), CDK6_CycD3; type: biochemical; settings: for Hill Slope: slope of the IC50 fit
T21 construct: purchased Reaction Biology

[29] = biological target: T22, CDK7_CycH_MAT1 (Homo sapiens, UniProt P50613); assay: Radiometric protein kinase assay (33PanQinase), CDK7_CycH_MAT1; type: biochemical; settings: for IC50: highest assay concentration 1.00E-05 M; for Hill Slope: slope of the IC50 fit
T22 construct: purchased Reaction Biology

[30] = biological target: T23, CDK8_CycC (Homo sapiens, UniProt P49336); assay: Radiometric protein kinase assay (33PanQinase), CDK8_CycC; type: biochemical; settings: for Hill Slope: slope of the IC50 fit
T23 construct: purchased Reaction Biology

[31] = biological target: T24, CDK9_CycK (Homo sapiens, UniProt P50750); assay: Radiometric protein kinase assay (33PanQinase), CDK9_CycK; type: biochemical; settings: for IC50: highest assay concentration 1.00E-05 M; for Hill Slope: slope of the IC50 fit
T24 construct: purchased Reaction Biology

[32] = biological target: T25, CDK9_CycT1 (Homo sapiens, UniProt P50750); assay: Radiometric protein kinase assay (33PanQinase), CDK9_CycT1; type: biochemical; settings: for IC50: highest assay concentration 1.00E-05 M; for Hill Slope: slope of the IC50 fit
T25 construct: purchased Reaction Biology

[33] = system: COLO205 cells; assay: Promoter reporter panel (transient luciferase constructs), COLO205; type: cell-based, human; settings: COLO205, 350 nM, 6 h
Method: Transcription factor activity was assayed in cell lines using 45 different plasmid reporter constructs encoding firefly luciferase under the control of a basal promoter element downstream of specific transcriptional response elements (Qiagen, Germany; Supporting Table S1). Firefly luciferase under the control of basal promoter element alone was used to establish the baseline signal and cotransfection of a construct expressing renilla luciferase from a CMV-promoter was used as a transfection control. Cells were reverse-transfected with reporter plasmids, compounds were added 42 h post transfection and reporter activity quantified following 6 h continuous exposure.
Transcription factor promoter reporter assays were carried out to define signalling pathways and biological processes modulated by CDK8/19 ligands. A panel of plasmid reporter constructs encoding firefly luciferase under the control of a basal promoter element with specific transcriptional response elements were used (Qiagen, Germany;
Firefly luciferase under the control of the minimal promoter element (TATA box) alone was used to establish the base-line signal and a construct expressing renilla luciferase from a CMV-promoter was used as a transfection control. COLO205 human colon cancer cells or SW620 parental and CRISPR KO cells were reverse-transfected with the panel of plasmid reporters in a 96 well plate format. The reporter mixes were prepared at 40:1 ratio of fLUC to rLUC plasmid at a final concentration of
100 ng/ml. For each well 1 ul plasmid was complexed with 1 ul Lipofectamine 2000
(Thermo Fisher Scientific, UK) in 50 ul OptiMEM (Thermo Fisher Scientific, UK) media
for 20 mins at room temperature. Cells were trypsinised and 50 ul of cells at 2e5
cells/ml in supplemented DMEM were added to the 50 ul of plasmid:lipofectamine
mixture in OptiMEM in a well of a 96-well white opaque flat bottom microtiter plate.
fLUC and rLUC were measured by the addition of 100 ul dual glo luciferase reagent
(Promega, USA). Reporter activity was quantified in untreated cells 48 hours post- […]

[34] = system: CDK8; set-up: method as in numbers not given; settings: reporter displacement assay; previously characterized compounds, no method in this paper; ref numbers not given; read-out: IC50 for in vitro CDK8 binding; cited from earlier work
[35] = highest assay concentration 1.00E-05 M, read-out: IC50
[36] = highest assay concentration 1.00E-05 M

T2 sequence (P06493 whole entry): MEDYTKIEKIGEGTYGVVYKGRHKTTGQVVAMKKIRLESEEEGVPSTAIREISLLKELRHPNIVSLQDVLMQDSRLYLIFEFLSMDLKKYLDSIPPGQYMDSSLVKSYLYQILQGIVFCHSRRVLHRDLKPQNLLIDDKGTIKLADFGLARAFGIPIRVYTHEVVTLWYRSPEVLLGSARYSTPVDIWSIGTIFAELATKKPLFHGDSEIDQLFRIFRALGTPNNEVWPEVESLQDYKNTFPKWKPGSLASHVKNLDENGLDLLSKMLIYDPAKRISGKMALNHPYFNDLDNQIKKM
T2 sequence (P14635 whole entry partner): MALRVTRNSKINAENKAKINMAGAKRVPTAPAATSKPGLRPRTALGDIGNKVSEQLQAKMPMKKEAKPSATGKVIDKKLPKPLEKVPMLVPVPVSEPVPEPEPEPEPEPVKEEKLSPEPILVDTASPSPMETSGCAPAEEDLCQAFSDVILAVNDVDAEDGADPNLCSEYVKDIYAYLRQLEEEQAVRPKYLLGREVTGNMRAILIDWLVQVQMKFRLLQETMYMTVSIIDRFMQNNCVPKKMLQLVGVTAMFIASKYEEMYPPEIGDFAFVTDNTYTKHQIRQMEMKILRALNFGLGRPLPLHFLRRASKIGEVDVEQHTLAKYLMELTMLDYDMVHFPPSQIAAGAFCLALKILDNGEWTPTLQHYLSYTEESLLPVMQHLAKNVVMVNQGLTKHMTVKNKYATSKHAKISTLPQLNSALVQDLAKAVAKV
T17 sequence (Q00535 whole entry): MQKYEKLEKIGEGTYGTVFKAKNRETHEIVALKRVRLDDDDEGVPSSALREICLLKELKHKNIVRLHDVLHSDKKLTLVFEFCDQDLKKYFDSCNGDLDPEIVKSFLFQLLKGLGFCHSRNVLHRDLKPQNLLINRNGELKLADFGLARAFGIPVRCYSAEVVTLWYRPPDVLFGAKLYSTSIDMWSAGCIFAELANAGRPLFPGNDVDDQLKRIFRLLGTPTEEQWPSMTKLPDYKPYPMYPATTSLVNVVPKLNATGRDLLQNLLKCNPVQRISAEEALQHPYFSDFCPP
T17 sequence (Q15078 99-307 partner limits assumed): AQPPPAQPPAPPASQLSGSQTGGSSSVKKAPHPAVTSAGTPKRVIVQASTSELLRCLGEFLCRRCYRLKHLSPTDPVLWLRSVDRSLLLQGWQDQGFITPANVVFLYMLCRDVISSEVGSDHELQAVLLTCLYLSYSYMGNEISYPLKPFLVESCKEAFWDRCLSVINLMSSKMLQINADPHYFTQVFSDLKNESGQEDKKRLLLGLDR
T18 sequence (Q00535 whole entry): as the sequence (Q00535 whole entry) above
T18 sequence (Q15078 whole entry partner): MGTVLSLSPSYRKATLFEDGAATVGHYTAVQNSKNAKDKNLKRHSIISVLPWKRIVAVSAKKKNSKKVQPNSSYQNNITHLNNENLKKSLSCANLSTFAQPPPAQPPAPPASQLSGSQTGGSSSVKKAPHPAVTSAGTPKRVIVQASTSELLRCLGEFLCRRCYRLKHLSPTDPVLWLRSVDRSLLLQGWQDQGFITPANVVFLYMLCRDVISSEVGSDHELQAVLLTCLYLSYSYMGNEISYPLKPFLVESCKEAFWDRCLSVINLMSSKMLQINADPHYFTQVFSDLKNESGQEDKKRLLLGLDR
T22 sequence (P50613 whole entry): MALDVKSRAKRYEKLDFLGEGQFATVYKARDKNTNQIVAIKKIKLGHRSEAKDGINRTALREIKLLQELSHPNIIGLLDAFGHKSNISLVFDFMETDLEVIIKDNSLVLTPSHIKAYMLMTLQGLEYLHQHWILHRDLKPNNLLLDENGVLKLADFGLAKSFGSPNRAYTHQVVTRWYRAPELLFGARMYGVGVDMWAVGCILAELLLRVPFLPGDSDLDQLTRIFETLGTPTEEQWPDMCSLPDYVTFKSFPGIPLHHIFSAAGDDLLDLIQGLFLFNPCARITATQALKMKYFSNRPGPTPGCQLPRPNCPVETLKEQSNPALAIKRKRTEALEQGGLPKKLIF
T22 sequence (P51946 whole entry partner): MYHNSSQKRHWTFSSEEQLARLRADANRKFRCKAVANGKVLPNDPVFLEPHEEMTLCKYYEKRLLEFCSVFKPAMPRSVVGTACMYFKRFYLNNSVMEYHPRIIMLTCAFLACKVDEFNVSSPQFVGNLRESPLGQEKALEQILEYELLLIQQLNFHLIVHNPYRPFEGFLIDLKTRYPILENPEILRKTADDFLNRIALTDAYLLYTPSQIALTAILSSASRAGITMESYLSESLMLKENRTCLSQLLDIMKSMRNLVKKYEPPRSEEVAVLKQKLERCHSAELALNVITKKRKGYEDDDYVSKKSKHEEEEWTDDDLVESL
T22 sequence (P51948 whole entry partner): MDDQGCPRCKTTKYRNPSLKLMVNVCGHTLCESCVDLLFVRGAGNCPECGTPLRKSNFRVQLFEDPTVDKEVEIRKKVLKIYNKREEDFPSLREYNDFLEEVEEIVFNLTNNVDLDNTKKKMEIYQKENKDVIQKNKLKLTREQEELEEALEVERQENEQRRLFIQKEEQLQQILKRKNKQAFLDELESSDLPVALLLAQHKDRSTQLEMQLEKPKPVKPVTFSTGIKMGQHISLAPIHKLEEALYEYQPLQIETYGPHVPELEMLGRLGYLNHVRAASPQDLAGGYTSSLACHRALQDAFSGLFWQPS
Chain of CDK11B 357-795_CycK (P21127 357-795): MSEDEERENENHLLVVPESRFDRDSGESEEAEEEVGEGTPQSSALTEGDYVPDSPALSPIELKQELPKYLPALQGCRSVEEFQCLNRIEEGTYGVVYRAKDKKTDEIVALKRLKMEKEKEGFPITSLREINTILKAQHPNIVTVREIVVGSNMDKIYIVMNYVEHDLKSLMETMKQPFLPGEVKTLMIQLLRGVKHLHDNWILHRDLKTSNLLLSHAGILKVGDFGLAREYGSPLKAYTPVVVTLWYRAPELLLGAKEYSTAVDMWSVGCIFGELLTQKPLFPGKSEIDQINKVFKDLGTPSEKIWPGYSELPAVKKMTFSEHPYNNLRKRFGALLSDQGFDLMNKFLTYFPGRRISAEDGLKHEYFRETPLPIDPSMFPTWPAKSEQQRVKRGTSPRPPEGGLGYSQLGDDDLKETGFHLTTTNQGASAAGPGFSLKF
T20 sequence (Q00534 whole entry): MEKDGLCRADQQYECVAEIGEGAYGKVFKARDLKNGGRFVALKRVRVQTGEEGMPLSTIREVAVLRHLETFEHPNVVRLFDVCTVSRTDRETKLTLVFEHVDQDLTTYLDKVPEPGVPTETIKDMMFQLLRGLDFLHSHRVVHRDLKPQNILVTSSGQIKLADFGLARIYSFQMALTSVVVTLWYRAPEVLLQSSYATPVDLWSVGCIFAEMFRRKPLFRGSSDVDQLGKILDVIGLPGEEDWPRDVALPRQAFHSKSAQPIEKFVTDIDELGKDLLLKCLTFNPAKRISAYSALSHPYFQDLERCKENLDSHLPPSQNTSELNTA
T20 sequence (P30279 whole entry partner): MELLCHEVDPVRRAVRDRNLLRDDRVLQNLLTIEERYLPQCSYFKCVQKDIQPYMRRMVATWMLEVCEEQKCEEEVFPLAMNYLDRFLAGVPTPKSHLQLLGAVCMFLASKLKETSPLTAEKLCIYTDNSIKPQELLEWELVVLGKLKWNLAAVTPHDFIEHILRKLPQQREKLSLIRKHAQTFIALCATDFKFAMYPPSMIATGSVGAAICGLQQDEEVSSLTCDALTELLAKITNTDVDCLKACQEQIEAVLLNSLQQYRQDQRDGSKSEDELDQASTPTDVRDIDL
T21 sequence (Q00534 whole entry): as the sequence (Q00534 whole entry) above
T21 sequence (P30281 whole entry partner): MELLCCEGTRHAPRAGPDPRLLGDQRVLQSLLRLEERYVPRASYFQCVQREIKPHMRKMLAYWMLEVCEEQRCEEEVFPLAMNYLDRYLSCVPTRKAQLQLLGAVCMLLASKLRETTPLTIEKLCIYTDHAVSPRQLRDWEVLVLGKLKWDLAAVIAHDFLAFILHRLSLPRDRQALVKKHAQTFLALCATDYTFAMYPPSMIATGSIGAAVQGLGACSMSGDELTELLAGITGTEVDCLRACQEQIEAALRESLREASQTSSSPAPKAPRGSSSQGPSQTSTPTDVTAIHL
Chain of CDK10_CycQ (Q15131 whole entry): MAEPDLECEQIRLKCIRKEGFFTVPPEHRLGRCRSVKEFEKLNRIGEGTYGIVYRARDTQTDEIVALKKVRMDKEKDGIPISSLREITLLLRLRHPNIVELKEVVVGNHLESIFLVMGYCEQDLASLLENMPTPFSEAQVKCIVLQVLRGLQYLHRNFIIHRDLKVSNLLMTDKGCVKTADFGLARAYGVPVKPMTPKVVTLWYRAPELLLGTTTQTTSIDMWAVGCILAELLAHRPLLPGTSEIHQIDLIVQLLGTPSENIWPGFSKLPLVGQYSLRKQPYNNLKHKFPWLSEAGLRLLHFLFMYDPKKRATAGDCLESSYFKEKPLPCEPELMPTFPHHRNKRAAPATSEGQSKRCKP
Chain of CDK10_CycQ (Q8N1B3 whole entry partner): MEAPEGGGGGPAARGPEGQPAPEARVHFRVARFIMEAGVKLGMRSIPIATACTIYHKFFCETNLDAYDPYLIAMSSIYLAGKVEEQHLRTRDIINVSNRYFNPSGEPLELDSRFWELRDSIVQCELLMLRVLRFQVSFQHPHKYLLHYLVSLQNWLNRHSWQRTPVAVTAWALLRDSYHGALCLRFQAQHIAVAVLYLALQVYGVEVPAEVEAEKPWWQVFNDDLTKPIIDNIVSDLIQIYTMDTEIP

CN1CCN(C(=O)c2ccc3cc(CCNc4ncnc5ccc(C#N)cc45)ccc3c2)CC1 [Senexin B, reference compound]
Hill Slope [1]: -0.17 | Hill Slope [2]: -0.12 | IC50 [3, 35]: > 10 µM | Hill Slope [3]: -0.4 | IC50 [4]: > 10 µM | Hill Slope [4]: -0.47 | IC50 [5]: > 10 µM | Hill Slope [5]: -0.19 | Hill Slope [6]: -0.18 | Hill Slope [7]: -0.12 | IC50 [8]: > 10 µM | Hill Slope [8]: -0.57 | IC50 [9]: > 10 µM | Hill Slope [9]: -0.78 | IC50 [10]: > 10 µM | Hill Slope [10]: -0.95 | Hill Slope [11]: -0.16 | IC50 [12]: > 10 µM | Hill Slope [12]: -0.39 | Hill Slope [13]: -0.53 | IC50 [14, 35]: > 10 µM | Hill Slope ([14]; slope of the IC50 fit): -0.76 | Hill Slope [15]: -0.18 | IC50 [16, 35]: > 10 µM | Hill Slope [16]: -0.46 | IC50 [17]: > 10 µM | Hill Slope [17]: -0.32 | IC50 [18]: > 10 µM | Hill Slope [18]: -0.45 | Hill Slope [19]: -0.01 | IC50 [20, 35]: > 10 µM | Hill Slope [20]: -0.36 | IC50 [21]: > 10 µM | Hill Slope [21]: -0.51 | IC50 [22]: > 10 µM | Hill Slope [22]: -0.64 | IC50 [23]: > 10 µM | Hill Slope [23]: -0.51 | IC50 [24]: > 10 µM | Hill Slope [24]: -0.24 | IC50 [25]: > 10 µM | Hill Slope [25]: -0.43 | IC50 [26]: > 10 µM | Hill Slope [26]: -0.17 | IC50 [27]: > 10 µM | Hill Slope [27]: -0.36 | IC50 [28, 36]: > 10 µM | Hill Slope [28]: -0.32 | IC50 [29]: > 10 µM | Hill Slope [29]: -0.55 | IC50 [30, 35]: 0.165 µM | Hill Slope [30]: -0.56 | IC50 [31]: 5.16 µM | Hill Slope [31]: -0.6 | IC50 [32]: 9.43 µM | Hill Slope [32]: -0.82

Cc1n[nH]c2ncc(C(=O)N3CCC[C@H]3c3ccc(Cl)cc3)cc12 [MSC2530818]
IC50 [1]: 6.46 µM | Hill Slope [1]: -0.93 | IC50 [2, 36]: > 10 µM | Hill Slope [2]: -0.72 | IC50 [3]: 4.15 µM | Hill Slope [3]: -0.97 | IC50 [4]: > 10 µM | Hill Slope [4]: -1.12 | IC50 [5]: > 10 µM | Hill Slope [5]: -0.64 | IC50 [6, 36]: 9.75 µM | Hill Slope [6]: -0.59 | IC50 [7]: > 10 µM | Hill Slope [7]: -0.19 | IC50 [8]: > 10 µM | Hill Slope [8]: -1 | IC50 [9]: > 10 µM | Hill Slope [9]: -0.85 | IC50 [10]: > 10 µM | Hill Slope [10]: -0.58 | IC50 [11, 36]: > 10 µM | Hill Slope [11]: -0.57 | IC50 [12]: 3.72 µM | Hill Slope [12]: -1.14 | IC50 [13]: 0.355 µM | Hill Slope [13]: -0.43 | IC50 [14]: 6.53 µM | IC50 [15]: 9.73 µM | Hill Slope [15]: -1.08 | IC50 [16]: 2.92 µM | Hill Slope [16]: -1.29 | IC50 [17]: > 10 µM | Hill Slope [17]: -0.81 | IC50 [18]: > 10 µM | Hill Slope [18]: -0.44 | IC50 [19]: 6.41 µM | Hill Slope [19]: -0.76 | IC50 [20]: > 10 µM | Hill Slope [20]: -0.54 | IC50 [21]: > 10 µM | Hill Slope [21]: -0.48 | IC50 [22]: > 10 µM | Hill Slope [22]: -0.44 | IC50 [23]: > 10 µM | Hill Slope [23]: -0.71 | IC50 [24]: > 10 µM | Hill Slope [24]: -0.57 | IC50 [25]: 7.57 µM | Hill Slope [25]: -1.04 | IC50 [26]: > 10 µM | Hill Slope [26]: -0.22 | IC50 [27]: > 10 µM | Hill Slope [27]: -1.11 | Hill Slope [28]: -0.25 | IC50 [29]: > 10 µM | Hill Slope [29]: -0.6 | IC50 [30]: 0.114 µM | Hill Slope [30]: -0.45 | IC50 [31]: > 10 µM | Hill Slope [31]: -0.78 | IC50 [32]: > 10 µM | Hill Slope [32]: -1.26 | reduction of activity of TCF/LEF, SP1 and PAX6 reporter constructs [33]: > 1.5 fold | IC50 [34]: 0.0044 µM
